Experimental data reported in US3949075A, “Anti-microbial compounds of 2', 4' substituted anilides of substituted nitrosalicylic acid for quadruped animals” (Ferro Corporation, priority 1974, dated 1976).
Read-outs that look alike come from different tables or passages of the source.

Key:
[1] = test system: liver flukes of the genus Fasciola; test: Utility against liver flukes of the genus Fasciola in sheep (oral); format: in vivo; details: for effect against (mature) liver flukes: oral, 5 mg/kg, within three days; for effect against liver flukes: 15 mg/kg
Experimental: (§1) Test for activity against liver flukes were conducted as follows:
(§2) Eggs of Fasciola hepatica were collected from the bile of donor sheep. The eggs were embryonated and snails were infected (the genus Lymnaea serves as intermediate host) to produce Metacercariae which are the infective forms for sheep. Each sheep was infected with 250 metacercariae intraruminally. When the infection became patent in ca. 80 days, egg counts were carried out to determine the degree of worm burden. The liver was processed to recover F. hepatica in the untreated and treated sheep.
The compounds of this invention also have utility against liver flukes.

[2] = test system: Fasciola hepatica; test: Test for activity against liver flukes, Fasciola hepatica, in infected sheep; format: in vivo; details: for inhibition in vivo at 1 mg/kg: Tables VIII and X
Experimental: as §1, §2
(§3) The data of the tables were generated using procedures previously described. The compounds tested are disubstituted and, except for Example 50 which is dibromo, are dichloro. Where the position for the substituents is other than 2' and 4', it is indicated. Under the indicated microorganisms, the values given in this and the following tables, should be read as: percentage of microorganism killed/dose in milligrams per kilogram of body weight. Under "Tolerance", the term "Tol." means "tolerated", "Tox." means "toxic", and "Sym." means "symptoms of toxic reaction", all at the dosage value which follows. It will be appreciated that there is no sharp toxicity end point in determining toxicity to living sheep.

[3] = test system: Haemonchus contortus; test: Percent of Haemonchus destroyed or expelled in infected sheep (egg count after treatment); format: in vivo, Haemonchus contortus (in sheep); details: for Effectiveness at 15 mg/kg against Haemonchus: Table VI; for effective in killing or expelling Haemonchus: dose not given; for Haemonchus (2 mg/kg), percent of parasites destroyed or expelled / Haemonchus (15 mg/kg), percent of parasites destroyed or expelled / Haemonchus (5 mg/kg), percent of parasites destroyed or expelled: into rumen, Table 1
Experimental: Two groups of sheep were used in the tests. One group was used as a non-medicated control, while the other group was treated with the compound under investigation. Helminth-free young lambs were infected with about 10,000 filariform larvae of Haemonchus contortus. In three weeks when the infection became apparent, egg counts were made to determine the density of the worm burden.
The egg count was carried out using the following modified Stoll method. Three grams of sheep feces were taken rectally from each animal and placed in a Stoll flask. To each flask, tap water was added to the top line. The fecal pellets were too hard to break down, the flasks were closed with rubber stoppers and kept in the refrigerator for several hours. The flasks were thoroughly shaken and a 1 ml. sample was drawn from the middle using a wide mouth pipette. This 1 ml. sample was transferred to an 8 ml. plastic tube, to which enough saturated sodium chloride solution was added to reach the rim. The tubes were then centrifuged for 10 minutes at 1500 r.p.m. Then sodium chloride solution was added with a medicine dropper forming a concave miniscus. A cover glass was carefully added and the tubes were kept in a refrigerator for ten to twenty minutes. During that period, the nematode ova flowed upward and adhered to the bottom of the cover glass slip. At the end of the 20-minute period, the cover slip was carefully detached from the miniscus and transferred to a microscopic slide. The ova were then counted under a microscope equipped with 10X ocular and 10X objective lens. Each ovum under the microscope represented 20 ova in the sample.
Animals with sufficiently high egg counts were taken out of the pool and housed in experimental pens. Since the salicylanilides of the present invention are water insoluble, the compounds were first ground using a mortar and pestle and then were placed in a carboxymethyl cellulose solution. The particles were further micronized ultrasonically. The compound was then administered to two or three animals by Oesophageal gavage. Control, untreated animals, received only the carboxymethyl cellulose solution in a similar manner. On the sixth and seventh day after treatment, fecal pellets were taken from the rectum of the control as well as the treated animals and egg counts were made.
(§4) The results of tests on sheep in a manner described, supra, using compounds of the present invention are given in Table 1, Examples 5 through 13. The numbers in the column headed "Haemonchus (15 mg/kg)" refer to the percent of parasites destroyed or expelled when the indicated compound was introduced into the rumen of sheep at a dosage of 15 milligrams per kilogram of body weight. The values under "Tolerance (mg/kg)" refer to the highest test dosage in the milligrams of anthelmintic per kilogram of body weight at which the sheep developed no toxic symptoms. "Tol." is an abbreviation for "tolerated". The symbols R1 and R2 refer to those of Formula I in these and other following examples.
as §3

[4] = Tolerance / toxicity in sheep; format: in vivo; design: key to Tolerance at 100 mg/kg / Tolerance at 50 mg/kg: "toxic" refers to death of sheep resulting from the use of the indicated compound at the indicated dosage; key to Tolerance: Tol.: tolerated; Tox.: toxic; Sym.: symptoms of toxic reaction; details: in vivo, Table 1, read-out: Tolerance, highest test dosage at which the sheep developed no toxic symptoms
Experimental: as §4
(§5) The importance of the 2',4' substitution on the anilide moiety of Formula I is illustrated by the case of the dichloro substitution as summarized in Table III. […] This has been mentioned briefly hereinabove. As used herein, "toxic" refers to death of sheep resulting from the use of the indicated compound at the indicated dosage.
as §3

[5] = test system: sheep; test: Tolerance / toxicity in sheep; format: in vivo; design: key to Tolerance at 100 mg/kg / Tolerance at 50 mg/kg: "toxic" refers to death of sheep resulting from the use of the indicated compound at the indicated dosage; key to Tolerance: Tol.: tolerated; Tox.: toxic; Sym.: symptoms of toxic reaction; details: for Tolerance at 50 mg/kg / Tolerance at 100 mg/kg: Tables III and IV
Experimental: as §4, §5, §3

[6] = test system: Haemonchus and Fasciola hepatica; test: Dual activity against Haemonchus and Fasciola in sheep and therapeutic ratio; format: in vivo; details: sheep; for dual activity relative to other isomers, in words: Table IX, listed as methyl 2'; for overall activity ranking, in words: Table X
[7] = Fasciola hepatica, read-out: Fasciola hepatica, percentage of microorganism killed
[8] = Fasciola hepatica, sheep, read-out: Fasciola hepatica, percentage of microorganism killed
[9] = Fasciola hepatica, sheep, 2 mg/kg, Tables VIII-XI, read-out: Fasciola hepatica, percentage of microorganism killed
[10] = Haemonchus contortus, iv, sheep, 15 mg/kg, Tables III and IV, read-out: Effectiveness (%) at 15 mg/kg
[11] = Haemonchus contortus, sheep, Tables VIII-XI, read-out: Haemonchus, percentage of microorganism killed
[12] = Haemonchus contortus, sheep, 5 mg/kg, Tables VIII-XI, read-out: Haemonchus, percentage of microorganism killed
[13] = sheep, 5 mg/kg, Tables III and IV
[14] = Fasciola hepatica, sheep, 5 mg/kg, Tables VIII-XI, read-out: Fasciola hepatica, percentage of microorganism killed
[15] = Haemonchus contortus, sheep, 15 mg/kg, Tables VIII-XI, read-out: Haemonchus, percentage of microorganism killed
[16] = Fasciola hepatica, sheep, Tables VIII-XI, read-out: Fasciola hepatica, percentage of microorganism killed

Row | SMILES | effect against (mature) liver flukes [1] | inhibition in vivo at 1 mg/kg [2, 8] [%] | inhibition in vivo at 2 mg/kg [2, 9] [%] | inhibition in vivo at 15 mg/kg [3, 10] [%] | inhibition in vivo at 2 mg/kg [3, 11] [%] | inhibition in vivo at 5 mg/kg [3, 12] [%] | Effectiveness (%) at 5 mg/kg [3, 13] [%] | Effectiveness at 15 mg/kg against Haemonchus ([3]; sheep, 15 mg/kg) [%] | effective in killing or expelling Haemonchus ([3]; sheep) [%] | Haemonchus (2 mg/kg), percent of parasites destroyed or expelled ([3]; sheep) [%] | Haemonchus (15 mg/kg), percent of parasites destroyed or expelled ([3]; sheep, 15 mg/kg) [%] | NOAEL [4] [mg/kg] | Tolerance ([5]; 50 mg./kg., Tables VIII-X) | Tolerance at 50 mg/kg [5] | Tolerance ([5]; 100 mg./kg., Tables VIII, IX) | Tolerance at 100 mg/kg [5] | inhibition in vivo at 5 mg/kg [2, 14] [%] | inhibition in vivo at 15 mg/kg [3, 15] [%] | Tolerance ([5]; 25 mg./kg., Tables IX, X) | effect against liver flukes [1] | other results
1 | Cc1c([N+](=O)[O-])cc(C(C)(C)C)c(O)c1C(=O)Nc1ccc(Cl)cc1Cl [Example 5, 3-tert. butyl-2', 4'-dichloro-6-methyl-5-nitrosalicylanilide] | completely destroyed all flukes | 44 | 99 | 100 | 14 | 100 | 100 | 100 | 100 | 14 | 100 | 50 to 100 | Tol. | nontoxic | Sym. | toxic | – | – | – | – | inhibition in vivo at 5 mg/kg [2, 7]: 100%; dose ratio: times less than the dose at which the 2',5' dichloro compound had no activity (Fasciola) ([2]; sheep): 2.5 times; effective against Fasciola ([2]; sheep, dose 2.5 times less than that at which the 2',5' dichloro compound had no activity): 99%; inhibition in vivo at 15 mg/kg ([3]; Haemonchus contortus, read-out: Haemonchus, percentage of microorganism killed, sheep, 15 mg/kg, Tables VIII-XI): 100%; activity at 5 mg./kg. ([3]; sheep, 5 mg/kg): 100%; dual activity against both Haemonchus and Fasciola ([6]; 5 mg./kg.): 100%
2 | Cc1cc(Cl)ccc1NC(=O)c1c(C)c([N+](=O)[O-])cc(C(C)(C)C)c1O [Example 6, 3-tert. butyl-4'-chloro-2', 6-dimethyl-5-nitrosalicylanilide] | The same effects against mature flukes | – | – | 100 | 67 | – | 95 | 100 | 100 | 67 | 100 | 50 to 100 | Sym. | non toxic | Tox. | toxic | 100 | 100 | Tol. | – | inhibition in vivo at 2 mg/kg [2, 7]: 0%; inhibition in vivo at 5 mg/kg ([3]; Haemonchus contortus, read-out: Haemonchus, percentage of microorganism killed, sheep, 5 mg/kg, Tables VIII-XI): 99%; activity against Haemonchus relative to other isomers, in words ([3]; sheep): greater activity against Haemonchus; dual activity relative to other isomers, in words ([6]; chloro 4' compound): much greater dual activity; dual activity relative to other isomers, in words ([6]; chloro 4' isomer): very active at doses well below those at which other isomers are inactive
3 | Cc1c([N+](=O)[O-])cc(C(C)(C)C)c(O)c1C(=O)Nc1ccc(C(F)(F)F)cc1 [Example 10, 3-tert. butyl-6-methyl-5-nitro-4'-trifluoromethylsalicylanilide] | – | – | – | – | – | – | – | – | – | – | 100 | 15 to 50 | – | – | – | – | – | 100 | – | efficacious | inhibition in vivo at 15 mg/kg [2, 16]: 100%; inhibition in vivo at 15 mg/kg ([3]; Haemonchus contortus, sheep, 15 mg/kg, Table V, read-out: Effectiveness at 15 mg/kg against Haemonchus): 100%
4 | Cc1c([N+](=O)[O-])cc(C(C)(C)C)c(O)c1C(=O)Nc1ccc(Br)cc1C(F)(F)F [Example 11] | – | 100 | 100 | – | 99.8 | 100 | – | – | – | 99.8 | – | ≥ 20 | – | – | – | – | 100 | – | – | – | inhibition in vivo at 0.5 mg/kg ([2]; Fasciola hepatica, sheep, 0.5 mg/kg, Table X, read-out: Fasciola hepatica, percentage of microorganism killed): 97%; Haemonchus (5 mg/kg), percent of parasites destroyed or expelled ([3]; sheep, 5 mg/kg): 100%; Tolerance ([5]; 20 mg./kg., Table X): Tol.; Tolerance ([5]; 35 mg./kg., Table X): Tol.; Tolerance, highest test dosage at which the sheep developed no toxic symptoms ([5]; Table 1, listed as 12): ≥ 35 mg/kg; overall activity ranking, in words [6]: most active compounds of the invention
5 | Cc1c([N+](=O)[O-])cc(C(C)(C)C)c(O)c1C(=O)Nc1ccc(Cl)cc1C(F)(F)F [Example 13] | – | 100 | 100 | – | 96 | 91 | – | – | – | 96 | 100 | ≥ 15 | Tox. | – | – | – | – | 100 | Tox. | – | inhibition in vivo at 1 mg/kg ([3]; Haemonchus contortus, sheep, 1 mg/kg, Table X, read-out: Haemonchus, percentage of microorganism killed): 76%; Haemonchus (5 mg/kg), percent of parasites destroyed or expelled ([3]; sheep, 5 mg/kg): 91%; Tolerance ([5]; 15 mg./kg., Tables VIII, X): Tol.; overall activity ranking, in words [6]: most active compounds of the invention
6 | Cc1c(Cl)cccc1NC(=O)c1c(C)c([N+](=O)[O-])cc(C(C)(C)C)c1O [Example 28, 3-tert. butyl-3'-chloro 2', 6-dimethyl-5-nitrosalicylanilide] | – | – | – | 87 | – | – | – | – | – | – | – | – | Tox. | toxic | – | – | – | 87 | – | ineffective against liver flukes | inhibition in vivo at 15 mg/kg [2, 16]: 0%
